Earlier results as cited in patent publication US4775679A, “Certain heterocyclic-ethyl-2,3-dihydrobenzofurans useful as anti-inflammatory agents” (Merck & Co., Inc., priority 1987, dated 1988).

System: inflammatory responses elicited by topically applied phorbol myristate acetate (PMA) or archidonic acid (AA)

SMILES | active in this assay (topical mouse ear), previously established
COc1ccc2c(c1)c(CC(=O)O)c(C)n2C(=O)c1ccc(Cl)cc1 [Indomethacin] | active
C[C@@H]1C[C@H]2[C@@H]3CCC4=CC(=O)C=C[C@]4(C)[C@@]3(F)[C@@H](O)C[C@]2(C)[C@@]1(O)C(=O)CO [dexamethasone] | active
